Experimental data published in PubChem BioAssay (NCI).
Values joined by “and” are separate entries in the source; they are usually repeats but may differ in a detail not shown here. Equal entries are not always repeated.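 Protocol summary: plate cells (96-well), add compound at 5 concentrations, incubate 48 h, interpolate endpoints linearly. At the GI50, growth is halved. At the TGI there is no net growth.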

Assays:
Assay in all cases: NCI tumour cell line growth inhibition, 48 h
[1] = tested on: COLO 205 colon
[2] = tested on: MOLT-4 leukemia
[3] = tested on: CAKI-1 renal
[4] = tested on: RPMI-8226 leukemia
[5] = tested on: NCI-H522 lung
[6] = tested on: OVCAR-3 ovarian
[7] = tested on: U251 CNS
[8] = tested on: LOX IMVI melanoma
[9] = tested on: 786-0 renal
[10] = tested on: KM12 colon

| Structure (SMILES) | GI50 [1] | TGI [1] | GI50 [2] | TGI [2] | GI50 [3] | TGI [3] | GI50 [4] | TGI [4] | GI50 [5] | TGI [5] | GI50 [6] | TGI [6] | GI50 [7] | TGI [7] | GI50 [8] | TGI [8] | GI50 [9] | TGI [9] | GI50 [10] | TGI [10] |
| --- | --- | --- | --- | --- | --- | --- | --- | --- | --- | --- | --- | --- | --- | --- | --- | --- | --- | --- | --- | --- |
| Cc1cc2c(cc1Cl)S/C(=C/C(=O)O)C(Nc1cccc3nsnc13)=NS2(=O)=O | > 48.3 µM | > 61.5 µM | 17.9 µM | > 59.4 µM | 56 µM | > 76.6 µM | 10.7 µM | 40.6 µM | 30.7 µM | > 77.4 µM | 47.5 µM | > 69.8 µM | 35.6 µM | > 71.7 µM | 53.4 µM | > 70.1 µM | 36.5 µM | > 62.2 µM | 50.6 µM | > 65.3 µM |
| Cc1ccc(NC(=O)/C(Cc2cc(=O)oc3cc(O)ccc23)=N\NC(=O)C[N+](C)(C)C)cc1C |  | > 100 µM |  | > 100 µM |  | > 100 µM |  | > 100 µM |  | > 100 µM |  | > 100 µM |  | > 100 µM |  | > 100 µM |  | > 100 µM |  | > 100 µM |
| O=C(NCCN1CCNCC1)c1ccc(Nc2nc3ccccc3c3occc23)cc1 | 10.6 µM | > 100 µM | 20.4 µM | 36.9 µM | 15.6 µM | 32.3 µM | 18.7 µM | 49.1 µM | 10.3 µM | 28.3 µM | 14.5 µM | 80.1 µM | 17.9 µM | 33.1 µM | 15.2 µM | 33.1 µM | 8.06 µM | 21.6 µM | 19 µM | 40.6 µM |
| COc1ccc(F)c(F)c1C(=O)c1cnc(NC2CCN(S(C)(=O)=O)CC2)nc1N | 0.253 µM and 0.15 µM | 1.69 µM and 1.48 µM | 0.39 µM and 0.321 µM | > 100 µM | 1.05 µM and 0.232 µM | > 100 µM | 0.791 µM and 0.353 µM | 4.98 µM and 5.57 µM | 2.38 µM and 1.62 µM | 6.97 µM and 5.86 µM | 0.961 µM and 0.588 µM | 5.26 µM and 6.56 µM | 0.484 µM and 0.371 µM | > 100 µM | 0.848 µM and 0.291 µM | > 100 µM | 0.666 µM and 0.388 µM | > 27 µM | 0.402 µM and 0.306 µM | > 29.8 µM |
| CCN(CC)c1ccc(/C=C/C2=[N+](C)c3ccccc3C2(C)C)c(C)c1 | 0.0489 µM | 0.127 µM | 0.0512 µM | 1.55 µM | 0.926 µM | 12 µM | < 0.0164 µM | 0.466 µM | 0.0482 µM | 0.269 µM | 0.0616 µM | 1.47 µM | 0.0364 µM | 2.54 µM | 0.0535 µM | 1.28 µM | 0.0941 µM | 1.88 µM | 0.0491 µM | 1.36 µM |
| CC(C)[O-].CC(C)[O-].O=c1cccccc1[O-].O=c1cccccc1[O-].[Ti+4] |  | > 100 µM |  | > 100 µM |  | > 100 µM |  | > 100 µM |  | 62.8 µM |  | > 100 µM | 28.9 µM | > 100 µM |  | > 100 µM |  | 69.9 µM |  | 69.8 µM |
| CC1c2ccccc2N=C2SC(=S)N3CCN=C3N21 (stereo unspecified) | > 100 µM | > 100 µM | > 100 µM | > 100 µM | > 100 µM | > 100 µM | > 100 µM | > 100 µM | > 100 µM | > 100 µM | > 100 µM | > 100 µM | > 100 µM | > 100 µM | > 100 µM | > 100 µM | > 100 µM | > 100 µM | > 100 µM | > 100 µM |
| C=CCNC(=O)N(CCC)CCCC(NC(C)=O)C(=O)NCc1ccccc1 (stereo unspecified) |  | > 100 µM |  | > 100 µM |  | > 100 µM |  | > 100 µM |  | > 100 µM |  | > 100 µM |  | > 100 µM |  | > 100 µM |  | > 100 µM |  | > 100 µM |
| CCn1c(-c2nonc2N)nc2ccncc21 | > 25 µM | > 25 µM | > 25 µM | > 25 µM | > 25 µM | > 25 µM | > 25 µM | > 25 µM | > 25 µM | > 25 µM | > 25 µM | > 25 µM | > 25 µM | > 25 µM | > 25 µM | > 25 µM | > 25 µM | > 25 µM | > 25 µM | > 25 µM |
| COc1c(O)c(OC)c2oc(-c3ccc(O)cc3)c(OC)c(=O)c2c1O |  | > 100 µM |  | > 100 µM |  | > 100 µM |  | > 100 µM |  | 70.9 µM |  | 74.9 µM |  | > 100 µM |  | > 100 µM |  | 86.3 µM |  | > 100 µM |
| CCCCCCC(C)CCCCCCCCCCC(=O)O (stereo unspecified) |  | > 100 µM |  | > 100 µM |  | > 100 µM |  | > 100 µM |  | > 100 µM |  | > 100 µM |  | > 100 µM |  | > 100 µM |  | > 100 µM |  | > 100 µM |
| CC1(O)CCn2c(=O)c3cc4ccccc4cc3c(=O)n2C1O (stereo unspecified) |  | > 100 µM |  | > 100 µM |  | > 100 µM |  | > 100 µM |  | 50.7 µM |  | > 100 µM |  | > 100 µM |  | > 100 µM |  | > 100 µM |  | > 100 µM |
| Nc1cc(-c2ccc(Cl)cc2)nn1-c1nnc(/C=C/c2ccco2)c(=O)[nH]1 | 3.64 µM | > 42.9 µM | 3.17 µM | > 43 µM | 0.842 µM | 7.04 µM | 1.54 µM | > 48.1 µM | 8.95 µM | 40.3 µM | 2.16 µM | 8.45 µM | 3 µM | 37.7 µM | 4.82 µM | 37.8 µM | 5.04 µM | 23.9 µM | 4.05 µM | > 56.6 µM |
| Cn1c(=O)nc2n(-c3ccc(Cl)c(C(F)(F)F)c3)c3ccccc3nc-2c1=O |  | 49.9 µM |  | > 100 µM |  | > 100 µM |  | > 100 µM |  | 73 µM |  | > 100 µM |  | > 100 µM |  | > 100 µM |  | > 100 µM |  | > 100 µM |
| CCOC(OC1=C(C#N)CCCC1)C(CC)[Se]c1ccccc1 (stereo unspecified) |  | 40.6 µM |  | 55.8 µM |  | > 100 µM |  | 50.1 µM |  | 29 µM |  | 54.6 µM |  | 44.3 µM |  | 21.9 µM |  | 31.6 µM |  | > 100 µM |
| CCCCCCCCCCCC1CC(=O)NCCCN(C)CCCCN(C)CCCN1C (stereo unspecified) |  | 3.03 µM |  | 7.73 µM |  | 3.54 µM |  | 4.09 µM |  | 3.27 µM |  | 3.07 µM |  | 3.04 µM |  | 2.84 µM |  | 2.89 µM |  | 2.96 µM |
